Assay results as given in ChEMBL document CHEMBL4507329, “Data for DCP probe BTZO-1” (2021).

How the values were obtained:
[1] = molecular target: 5-hydroxytryptamine receptor 1B (Homo sapiens) (UniProt P28222); settings: Compound concentration 10.0 uM
[2] = molecular target: Cyclin-dependent kinase 16 (Homo sapiens) (UniProt Q00536); settings: Compound concentration 1000.0 nM
[3] = molecular target: Muscarinic acetylcholine receptor M2 (Homo sapiens) (UniProt P08172); settings: Compound concentration 10.0 uM
[4] = molecular target: Cyclin-dependent kinase 4 (Homo sapiens) (UniProt P11802); settings: Compound concentration 1000.0 nM
[5] = tested on: Mast/stem cell growth factor receptor Kit (Homo sapiens), P10721 [L576P]; settings: Compound concentration 1000.0 nM
[6] = molecular target: cAMP-dependent protein kinase catalytic subunit PRKX (Homo sapiens) (UniProt P51817); settings: Compound concentration 1000.0 nM
[7] = molecular target: Histamine H2 receptor (Homo sapiens) (UniProt P25021); settings: Compound concentration 10.0 uM
[8] = molecular target: Serine/threonine-protein kinase WNK4 (Homo sapiens) (UniProt Q96J92); settings: Compound concentration 1000.0 nM
[9] = molecular target: Macrophage colony-stimulating factor 1 receptor (Homo sapiens) (UniProt P07333); settings: Compound concentration 1000.0 nM
Chain of Macrophage colony-stimulating factor 1 receptor (Homo sapiens) (P07333 whole entry): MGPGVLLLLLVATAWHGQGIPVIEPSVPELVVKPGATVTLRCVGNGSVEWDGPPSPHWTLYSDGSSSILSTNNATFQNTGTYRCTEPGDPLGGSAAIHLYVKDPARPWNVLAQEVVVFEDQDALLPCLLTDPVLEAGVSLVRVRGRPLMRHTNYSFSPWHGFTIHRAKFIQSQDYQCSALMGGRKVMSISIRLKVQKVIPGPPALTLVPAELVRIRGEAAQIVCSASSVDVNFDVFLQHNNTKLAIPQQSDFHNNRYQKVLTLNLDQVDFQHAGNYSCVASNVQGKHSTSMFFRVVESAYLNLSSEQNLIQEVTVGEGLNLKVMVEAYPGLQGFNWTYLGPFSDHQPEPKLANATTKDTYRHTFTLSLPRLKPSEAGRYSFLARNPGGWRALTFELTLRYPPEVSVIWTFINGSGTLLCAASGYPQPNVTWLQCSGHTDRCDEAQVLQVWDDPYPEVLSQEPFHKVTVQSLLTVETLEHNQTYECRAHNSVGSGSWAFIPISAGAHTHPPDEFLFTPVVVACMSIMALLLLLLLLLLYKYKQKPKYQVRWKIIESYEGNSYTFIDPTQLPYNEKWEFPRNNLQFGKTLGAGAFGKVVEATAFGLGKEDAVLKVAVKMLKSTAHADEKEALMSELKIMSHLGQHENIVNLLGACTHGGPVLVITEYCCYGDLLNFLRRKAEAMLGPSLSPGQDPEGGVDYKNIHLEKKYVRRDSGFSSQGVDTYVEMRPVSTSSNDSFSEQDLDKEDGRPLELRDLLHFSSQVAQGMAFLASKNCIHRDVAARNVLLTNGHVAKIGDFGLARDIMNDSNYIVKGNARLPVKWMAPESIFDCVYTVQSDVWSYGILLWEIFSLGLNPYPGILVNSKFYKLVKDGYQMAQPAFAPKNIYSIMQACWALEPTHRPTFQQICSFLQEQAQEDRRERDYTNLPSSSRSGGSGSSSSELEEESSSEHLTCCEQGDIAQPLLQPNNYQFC

[10] = molecular target: 5-hydroxytryptamine receptor 1A (Homo sapiens) (UniProt P08908); settings: Compound concentration 10.0 uM
Chain of 5-hydroxytryptamine receptor 1A (Homo sapiens) (P08908 whole entry): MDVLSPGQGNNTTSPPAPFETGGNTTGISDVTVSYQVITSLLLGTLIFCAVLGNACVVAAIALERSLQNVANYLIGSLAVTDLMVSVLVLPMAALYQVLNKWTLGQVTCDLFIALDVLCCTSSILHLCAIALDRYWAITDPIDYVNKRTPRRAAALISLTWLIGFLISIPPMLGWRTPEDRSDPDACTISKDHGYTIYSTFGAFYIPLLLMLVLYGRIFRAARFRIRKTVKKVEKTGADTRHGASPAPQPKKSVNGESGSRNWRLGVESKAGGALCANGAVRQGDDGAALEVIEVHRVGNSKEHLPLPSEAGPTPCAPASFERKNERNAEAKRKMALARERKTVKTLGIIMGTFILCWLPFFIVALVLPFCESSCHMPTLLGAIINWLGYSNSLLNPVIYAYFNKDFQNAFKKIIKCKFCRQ

[11] = molecular target: Mitogen-activated protein kinase 4 (Homo sapiens) (UniProt P31152); settings: Compound concentration 1000.0 nM
[12] = molecular target: RAC-alpha serine/threonine-protein kinase (Homo sapiens) (UniProt P31749); settings: Compound concentration 1000.0 nM
[13] = molecular target: Ephrin type-A receptor 2 (Homo sapiens) (UniProt P29317); settings: Compound concentration 1000.0 nM
[14] = molecular target: Tyrosine-protein kinase ITK/TSK (Homo sapiens) (UniProt Q08881); settings: Compound concentration 1000.0 nM
[15] = molecular target: Serine/threonine-protein kinase PAK 1 (Homo sapiens) (UniProt Q13153); settings: Compound concentration 1000.0 nM
Chain of Serine/threonine-protein kinase PAK 1 (Homo sapiens) (Q13153 whole entry): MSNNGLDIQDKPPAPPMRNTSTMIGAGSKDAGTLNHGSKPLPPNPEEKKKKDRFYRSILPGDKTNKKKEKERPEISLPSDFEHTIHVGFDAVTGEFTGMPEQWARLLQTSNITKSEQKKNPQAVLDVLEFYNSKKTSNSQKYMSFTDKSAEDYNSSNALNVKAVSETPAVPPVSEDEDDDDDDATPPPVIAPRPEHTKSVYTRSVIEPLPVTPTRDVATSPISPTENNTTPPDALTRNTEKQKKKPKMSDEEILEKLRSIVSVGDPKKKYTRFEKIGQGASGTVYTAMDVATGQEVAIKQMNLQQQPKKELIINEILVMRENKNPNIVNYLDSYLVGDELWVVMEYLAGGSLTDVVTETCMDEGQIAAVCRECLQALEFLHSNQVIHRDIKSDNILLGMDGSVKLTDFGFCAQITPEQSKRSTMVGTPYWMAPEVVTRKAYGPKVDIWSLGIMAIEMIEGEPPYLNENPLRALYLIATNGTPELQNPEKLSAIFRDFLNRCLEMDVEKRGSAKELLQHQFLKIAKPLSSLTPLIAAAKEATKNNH

[16] = molecular target: Ribosomal protein S6 kinase alpha-2 (Homo sapiens) (UniProt Q15349); settings: Compound concentration 1000.0 nM
Chain of Ribosomal protein S6 kinase alpha-2 (Homo sapiens) (Q15349 whole entry): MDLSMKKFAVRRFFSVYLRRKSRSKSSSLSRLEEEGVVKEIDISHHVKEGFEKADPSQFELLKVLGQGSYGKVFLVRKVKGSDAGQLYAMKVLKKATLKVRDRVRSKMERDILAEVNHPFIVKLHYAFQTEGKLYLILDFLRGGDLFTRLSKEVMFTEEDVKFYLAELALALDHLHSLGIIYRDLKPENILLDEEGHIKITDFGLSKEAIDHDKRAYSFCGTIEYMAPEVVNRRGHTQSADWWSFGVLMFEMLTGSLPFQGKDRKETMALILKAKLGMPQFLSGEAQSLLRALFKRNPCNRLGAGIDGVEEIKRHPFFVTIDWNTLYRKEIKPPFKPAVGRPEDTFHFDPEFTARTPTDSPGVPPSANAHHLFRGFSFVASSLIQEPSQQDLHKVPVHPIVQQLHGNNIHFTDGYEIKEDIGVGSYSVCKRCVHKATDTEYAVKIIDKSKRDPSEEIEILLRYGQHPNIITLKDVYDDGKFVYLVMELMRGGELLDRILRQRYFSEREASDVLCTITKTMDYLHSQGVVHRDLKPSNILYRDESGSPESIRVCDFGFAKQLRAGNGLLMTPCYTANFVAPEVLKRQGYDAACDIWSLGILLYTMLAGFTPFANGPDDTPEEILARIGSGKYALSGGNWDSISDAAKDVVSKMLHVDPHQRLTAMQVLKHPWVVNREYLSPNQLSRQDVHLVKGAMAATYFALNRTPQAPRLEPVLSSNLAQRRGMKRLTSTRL

[17] = molecular target: Fibroblast growth factor receptor 3 (Homo sapiens) (UniProt P22607); settings: Compound concentration 1000.0 nM
[18] = molecular target: Cyclin-dependent kinase 7 (Homo sapiens) (UniProt P50613); settings: Compound concentration 1000.0 nM
[19] = molecular target: Macrophage colony-stimulating factor 1 receptor (Homo sapiens) (UniProt P07333); settings: Compound concentration 1000.0 nM; remark: listed apart in the source
[20] = molecular target: Mitogen-activated protein kinase kinase kinase 5 (Homo sapiens) (UniProt Q99683); settings: Compound concentration 1000.0 nM
[21] = molecular target: Tyrosine-protein kinase Fer (Homo sapiens) (UniProt P16591); settings: Compound concentration 1000.0 nM
[22] = molecular target: Receptor-type tyrosine-protein kinase FLT3 (Homo sapiens) (UniProt P36888); settings: Compound concentration 1000.0 nM
[23] = molecular target: TGF-beta receptor type-1 (Homo sapiens) (UniProt P36897); settings: Compound concentration 1000.0 nM
[24] = molecular target: SRSF protein kinase 1 (Homo sapiens) (UniProt Q96SB4); settings: Compound concentration 1000.0 nM
[25] = molecular target: Serine/threonine-protein kinase ICK (Homo sapiens) (UniProt Q9UPZ9); settings: Compound concentration 1000.0 nM
[26] = molecular target: Hormonally up-regulated neu tumor-associated kinase (Homo sapiens) (UniProt P57058); settings: Compound concentration 1000.0 nM
[27] = molecular target: Dual specificity mitogen-activated protein kinase kinase 6 (Homo sapiens) (UniProt P52564); settings: Compound concentration 1000.0 nM
[28] = molecular target: Serine/threonine-protein kinase Sgk2 (Homo sapiens) (UniProt Q9HBY8); settings: Compound concentration 1000.0 nM
[29] = molecular target: Alpha-2C adrenergic receptor (Homo sapiens) (UniProt P18825); settings: Compound concentration 10.0 uM
[30] = tested on: Proto-oncogene tyrosine-protein kinase receptor Ret (Homo sapiens), P07949 [V804M]; settings: Compound concentration 1000.0 nM
Chain of Proto-oncogene tyrosine-protein kinase receptor Ret (Homo sapiens), P07949 [V804M] (P07949 whole entry V804M): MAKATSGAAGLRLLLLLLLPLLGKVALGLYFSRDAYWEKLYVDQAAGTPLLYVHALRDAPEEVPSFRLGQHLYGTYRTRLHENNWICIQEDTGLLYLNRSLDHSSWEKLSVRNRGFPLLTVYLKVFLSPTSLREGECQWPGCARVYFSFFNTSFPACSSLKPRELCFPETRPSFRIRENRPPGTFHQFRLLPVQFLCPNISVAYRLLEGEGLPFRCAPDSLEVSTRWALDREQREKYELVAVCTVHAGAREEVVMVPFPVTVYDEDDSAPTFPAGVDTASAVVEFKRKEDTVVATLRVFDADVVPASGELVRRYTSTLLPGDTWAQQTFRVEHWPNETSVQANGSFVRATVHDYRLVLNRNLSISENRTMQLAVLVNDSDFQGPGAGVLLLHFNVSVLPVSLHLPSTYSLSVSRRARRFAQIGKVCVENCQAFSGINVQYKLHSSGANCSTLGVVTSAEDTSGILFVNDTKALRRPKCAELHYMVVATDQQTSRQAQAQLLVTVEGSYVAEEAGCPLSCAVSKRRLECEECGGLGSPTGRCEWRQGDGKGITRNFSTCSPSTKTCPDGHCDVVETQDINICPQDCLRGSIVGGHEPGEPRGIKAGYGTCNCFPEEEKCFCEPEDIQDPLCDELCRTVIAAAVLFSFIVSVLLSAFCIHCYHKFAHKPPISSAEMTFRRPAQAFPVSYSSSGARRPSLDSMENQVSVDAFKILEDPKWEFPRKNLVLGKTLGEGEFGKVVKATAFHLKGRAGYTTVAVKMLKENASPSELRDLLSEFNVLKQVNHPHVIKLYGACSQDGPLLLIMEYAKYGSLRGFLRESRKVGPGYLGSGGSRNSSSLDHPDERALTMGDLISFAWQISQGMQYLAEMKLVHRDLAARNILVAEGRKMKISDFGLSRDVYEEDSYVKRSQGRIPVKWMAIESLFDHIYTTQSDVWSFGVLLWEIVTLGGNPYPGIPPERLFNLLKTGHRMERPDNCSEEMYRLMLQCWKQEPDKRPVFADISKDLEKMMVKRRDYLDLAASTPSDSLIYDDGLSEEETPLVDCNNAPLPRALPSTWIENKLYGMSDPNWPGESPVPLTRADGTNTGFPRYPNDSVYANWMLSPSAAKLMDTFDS

[31] = molecular target: Mitogen-activated protein kinase kinase kinase 19 (Homo sapiens) (UniProt Q56UN5); settings: Compound concentration 1000.0 nM
[32] = molecular target: Uncharacterized serine/threonine-protein kinase SBK3 (Homo sapiens) (UniProt P0C264); settings: Compound concentration 1000.0 nM
[33] = molecular target: Dual specificity testis-specific protein kinase 1 (Homo sapiens) (UniProt Q15569); settings: Compound concentration 1000.0 nM
[34] = molecular target: MAP kinase-interacting serine/threonine-protein kinase 1 (Homo sapiens) (UniProt Q9BUB5); settings: Compound concentration 1000.0 nM
[35] = molecular target: Myosin light chain kinase family member 4 (Homo sapiens) (UniProt Q86YV6); settings: Compound concentration 1000.0 nM
[36] = molecular target: Serine/threonine-protein kinase D2 (Homo sapiens) (UniProt Q9BZL6); settings: Compound concentration 1000.0 nM
[37] = tested on: Tyrosine-protein kinase ABL1 (Homo sapiens), P00519 [M351T]; settings: Compound concentration 1000.0 nM
[38] = tested on: eIF-2-alpha kinase GCN2 (Homo sapiens), Q9P2K8 [S808G]; settings: Compound concentration 1000.0 nM
[39] = molecular target: Serine/threonine-protein kinase 3 (Homo sapiens) (UniProt Q13188); settings: Compound concentration 1000.0 nM
Chain of Serine/threonine-protein kinase 3 (Homo sapiens) (Q13188 whole entry): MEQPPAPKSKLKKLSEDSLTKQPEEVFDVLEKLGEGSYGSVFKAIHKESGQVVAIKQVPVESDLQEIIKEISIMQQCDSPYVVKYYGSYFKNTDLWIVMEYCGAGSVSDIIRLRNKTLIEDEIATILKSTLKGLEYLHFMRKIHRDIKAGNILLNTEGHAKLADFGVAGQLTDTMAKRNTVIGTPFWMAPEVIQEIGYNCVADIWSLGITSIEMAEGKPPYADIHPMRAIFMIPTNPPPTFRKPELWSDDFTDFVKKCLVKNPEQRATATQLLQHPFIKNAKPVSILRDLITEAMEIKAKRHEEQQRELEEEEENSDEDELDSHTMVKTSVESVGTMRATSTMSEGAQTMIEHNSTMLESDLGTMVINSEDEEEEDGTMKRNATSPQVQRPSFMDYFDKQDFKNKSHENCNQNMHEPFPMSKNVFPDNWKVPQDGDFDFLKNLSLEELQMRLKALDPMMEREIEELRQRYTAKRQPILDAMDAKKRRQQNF

[40] = molecular target: Ribosomal protein S6 kinase alpha-6 (Homo sapiens) (UniProt Q9UK32); settings: Compound concentration 1000.0 nM
[41] = molecular target: Wee1-like protein kinase (Homo sapiens) (UniProt P30291); settings: Compound concentration 1000.0 nM
Chain of Wee1-like protein kinase (Homo sapiens) (P30291 whole entry, looked up): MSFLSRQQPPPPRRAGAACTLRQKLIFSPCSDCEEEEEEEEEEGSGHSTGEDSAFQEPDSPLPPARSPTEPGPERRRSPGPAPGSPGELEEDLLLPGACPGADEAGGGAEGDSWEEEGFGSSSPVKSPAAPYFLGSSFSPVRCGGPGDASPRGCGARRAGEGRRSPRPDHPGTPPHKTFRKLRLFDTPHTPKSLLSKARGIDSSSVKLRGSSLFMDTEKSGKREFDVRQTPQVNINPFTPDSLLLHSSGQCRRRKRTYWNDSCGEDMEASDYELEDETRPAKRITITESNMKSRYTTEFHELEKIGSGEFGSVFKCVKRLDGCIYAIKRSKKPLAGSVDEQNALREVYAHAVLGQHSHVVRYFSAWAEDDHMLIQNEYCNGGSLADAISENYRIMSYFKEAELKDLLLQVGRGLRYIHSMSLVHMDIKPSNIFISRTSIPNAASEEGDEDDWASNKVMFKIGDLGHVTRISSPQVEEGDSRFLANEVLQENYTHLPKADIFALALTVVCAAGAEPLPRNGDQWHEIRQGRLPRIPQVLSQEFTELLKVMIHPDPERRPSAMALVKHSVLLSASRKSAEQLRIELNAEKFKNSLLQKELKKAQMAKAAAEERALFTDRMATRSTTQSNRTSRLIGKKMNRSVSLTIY

[42] = molecular target: Platelet-derived growth factor receptor alpha (Homo sapiens) (UniProt P16234); settings: Compound concentration 1000.0 nM
[43] = molecular target: Myosin-IIIa (Homo sapiens) (UniProt Q8NEV4); settings: Compound concentration 1000.0 nM
[44] = molecular target: Serine/threonine-protein kinase 33 (Homo sapiens) (UniProt Q9BYT3); settings: Compound concentration 1000.0 nM
[45] = molecular target: Tyrosine-protein kinase JAK1 (Homo sapiens) (UniProt P23458); settings: Compound concentration 1000.0 nM

Work on `O=c1nc(-c2ccccn2)sc2ccccc12` [BTZO-1] yielded an inhibition [1] of -1.9%, a residual activity [2] of 100% and an inhibition [3] of 5.17%. For the same compound, the residual activity [4] was 90%, the residual activity [5] was 86% and the residual activity [6] was 100%. It also gave an inhibition [7] of 24.4%, a residual activity [8] of 100% and a residual activity [9] of 85%. For the same compound, the inhibition [10] was 9.69%, the residual activity [11] was 100% and the residual activity [12] was 100%. It also gave a residual activity [13] of 100%, a residual activity [14] of 82% and a residual activity [15] of 94%. For the same compound, the residual activity [16] was 100%, the residual activity [17] was 83% and the residual activity [18] was 69%. It also gave a residual activity [19] of 95%, a residual activity [20] of 75% and a residual activity [21] of 94%. It also gave a residual activity [22] of 93%, a residual activity [23] of 97% and a residual activity [24] of 83%. It also gave a residual activity [25] of 83%, a residual activity [26] of 81% and a residual activity [27] of 100%. For the same compound, the residual activity [28] was 85%, the inhibition [29] was -9.43% and the residual activity [30] was 100%. For the same compound, the residual activity [31] was 86%, the residual activity [32] was 100% and the residual activity [33] was 84%. For the same compound, the residual activity [34] was 89%, the residual activity [35] was 87% and the residual activity [36] was 97%. The residual activity [37] was 100%, the residual activity [38] was 47% and the residual activity [39] was 94%. The residual activity [40] was 92%, the residual activity [41] was 100% and the residual activity [42] was 89%. It also gave a residual activity [43] of 92%, a residual activity [44] of 87% and a residual activity [45] of 71%.

In the case of `O=C1NC(c2ccccn2)Sc2ccccc21` (stereo not given) [BTZO-4], the inhibition [1] is reported as 12.3%, the residual activity [2] is reported as 100% and the inhibition [3] is reported as 13.7%. The residual activity [4] was 81%, the residual activity [5] was 89% and the residual activity [6] was 100%. For the same compound, the inhibition [7] was 24.8%, the residual activity [8] was 100% and the residual activity [9] was 85%. It also gave an inhibition [10] of 24.7%, a residual activity [11] of 86% and a residual activity [12] of 89%. It also gave a residual activity [13] of 100%, a residual activity [14] of 77% and a residual activity [15] of 96%. The residual activity [16] was 97%, the residual activity [17] was 97% and the residual activity [18] was 77%. The residual activity [19] was 91%, the residual activity [20] was 72% and the residual activity [21] was 84%. The residual activity [22] was 77%, the residual activity [23] was 100% and the residual activity [24] was 73%. The residual activity [25] was 86%, the residual activity [26] was 80% and the residual activity [27] was 100%. The residual activity [28] was 72%, the inhibition [29] was -4.89% and the residual activity [30] was 86%. The residual activity [31] was 92%, the residual activity [32] was 86% and the residual activity [33] was 100%. For the same compound, the residual activity [34] was 82%, the residual activity [35] was 90% and the residual activity [36] was 96%. The residual activity [37] was 100%, the residual activity [38] was 42% and the residual activity [39] was 100%. The residual activity [40] was 81%, the residual activity [41] was 100% and the residual activity [42] was 76%. The residual activity [43] was 85%, the residual activity [44] was 93% and the residual activity [45] was 68%.
